Usually IC50 stands for the concentration that inhibits the measured activity by half. Low readings indicate greater potency, high ones weaker potency.

SMILES strings stand for the structures.

This note sets out measurements from article PMC4192545, “Suramin Inhibits Hsp104 ATPase and Disaggregase Activity” (PLoS ONE, 2014).

Type in all cases: biochemical, yeast
For one experiment, the target named is T1, Hsp104^T317A (Saccharomyces cerevisiae, UniProt P31539, T317A).
T1 construct: made in house; host or cells: E. coli BL21-DE3 RIL
T1 sequence (P31539 whole entry T317A): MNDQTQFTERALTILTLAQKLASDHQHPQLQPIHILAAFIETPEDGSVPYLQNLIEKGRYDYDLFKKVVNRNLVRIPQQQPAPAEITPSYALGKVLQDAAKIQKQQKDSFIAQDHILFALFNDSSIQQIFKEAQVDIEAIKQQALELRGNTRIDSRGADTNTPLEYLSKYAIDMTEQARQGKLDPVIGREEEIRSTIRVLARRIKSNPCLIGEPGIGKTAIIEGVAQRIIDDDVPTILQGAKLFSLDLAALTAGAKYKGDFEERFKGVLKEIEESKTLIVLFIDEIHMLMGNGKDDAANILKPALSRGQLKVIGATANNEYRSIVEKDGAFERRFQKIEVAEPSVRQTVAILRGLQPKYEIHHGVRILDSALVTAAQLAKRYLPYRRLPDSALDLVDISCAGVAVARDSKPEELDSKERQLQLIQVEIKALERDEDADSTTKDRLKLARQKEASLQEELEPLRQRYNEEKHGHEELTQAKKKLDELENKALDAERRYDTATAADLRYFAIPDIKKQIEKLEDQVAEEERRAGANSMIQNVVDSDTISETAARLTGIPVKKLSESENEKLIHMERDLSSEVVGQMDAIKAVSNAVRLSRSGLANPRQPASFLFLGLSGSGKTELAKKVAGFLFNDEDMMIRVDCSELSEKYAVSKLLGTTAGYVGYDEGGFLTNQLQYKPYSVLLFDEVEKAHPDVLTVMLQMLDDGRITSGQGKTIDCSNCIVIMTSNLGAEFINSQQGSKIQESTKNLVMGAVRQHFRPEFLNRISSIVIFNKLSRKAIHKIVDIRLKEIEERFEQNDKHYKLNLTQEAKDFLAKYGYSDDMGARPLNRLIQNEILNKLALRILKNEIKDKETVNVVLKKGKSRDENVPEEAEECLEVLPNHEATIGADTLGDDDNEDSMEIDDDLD
Put plainly: Luciferase reactivation, Hsp104^T317A. The conditions noted are these: ATP:ATPγS 1:1. As to the method:
Luciferase reactivation was performed as described, [37]. To assemble aggregates, firefly luciferase (50 µM) in luciferase refolding buffer (LRB, 25 mM HEPES-KOH, 7.4, 150 mM KAOc, 10 mM MgAOc, 10 mM DTT) with 6 M urea was incubated at 30°C for 20 min. Luciferase was then rapidly diluted 100-fold into LRB, divided into 100 µL aliquots, snap frozen in liquid N2, and stored at −80°C. For reactivation assays, aggregated luciferase (50 nM) was incubated with Hsp104 (1 µM hexamer), plus 2.6 mM ATPγS, 2.6 mM ATP and an ATP regeneration system (1 mM creatine phosphate, 0.25 µM creatine kinase (Roche Applied Science)) for 90 minutes at 25°C. Luciferase assay system was purchased from Promega. Luciferase activity was assessed by luminescence measured on a Safire^2 microplate reader (Tecan, Männedorf, Switzerland). The half maximal inhibitory concentration (IC50) was calculating by fitting luciferase-refolding data at different Suramin concentrations with Prism (GraphPad Software, Inc., La Jolla, CA).
(§1) Figure 7 Hsp104 variants respond differently to Suramin than Hsp104^WT. (A) Hsp104 variants (0.25 µM monomer) were incubated for 10 min with ATP (1 mM) and varying concentrations of Suramin. The amount of Pi produced was measured by absorbance at 635 nm. Absorbance values were normalized to the absorbance produced by each Hsp104 variant in the absence of inhibitor. Values represent mean ±S.D. (n = 6). (B) Urea-denatured firefly luciferase aggregates were incubated for 90 min at 25°C with Hsp104 variants (1 µM hexamer) plus 1∶1 mixtures of ATP and ATPγS (or ATP alone) and varying concentrations of Suramin. Luciferase reactivation was then determined and normalized to untreated disaggregase activity for each variant in the presence of ATPγS: ATP (or ATP alone). 1∶1 mixtures of ATP and ATPγS were used for Hsp104^WT and Hsp104^T317A, while ATP alone was used for Hsp104^A503V and Hsp104^N728A. Values represent mean ±S.D. (n = 6–12).

The target in another experiment is T2, Hsp104^WT (Saccharomyces cerevisiae, UniProt P31539).
T2 construct: made in house; host or cells: E. coli BL21-DE3 RIL
T2 sequence (P31539 whole entry): as the sequence (P31539 whole entry T317A) above, with A317T counted along it
Put plainly: RepA1–70-GFP unfolding assay. Particulars: GroELtrap, ATP:ATPγS 1:1. As to the method:
RepA1–70-GFP unfolding was performed as described previously. Varying concentrations of Suramin (0, 25, or 100 µM) were included as noted.
Next, we determined that Suramin hinders the unfoldase activity of Hsp104 using a RepA1–70-GFP substrate ( Figure 4A ). To assess RepA1–70-GFP unfolding without interference from spontaneous refolding, we added GroELtrap, which captures unfolded proteins to prevent refolding, [71].
Figure 4 Suramin inhibits Hsp104-mediated substrate unfolding and translocation. (A) RepA1–70-GFP was incubated with Hsp104^WT and GroELtrap plus a 1∶1 mixture of ATP and ATPγS. GFP unfolding was measured by fluorescence. GroELtrap alone is shown as a negative control (red line). Fluorescence values were normalized to initial raw fluorescence for each sample. Values represent mean ±S.D. (n = 3). (B) FITC-casein (0.1 µM) was incubated at 25°C with HAP (1 µM hexamer) and ClpP (21 µM monomer) plus ATP (5 mM) and an ATP regeneration system. Degradation of FITC-casein was monitored by fluorescence. Initial fluorescence was subtracted from raw fluorescence values for each sample. HAP alone is shown as a negative control (red line). Values represent mean ±S.D. (n = 5).

The next experiment deals with T3, Hsp104^A503V (Saccharomyces cerevisiae, UniProt P31539, A503V).
T3 construct: made in house; host or cells: E. coli BL21-DE3 RIL
T3 sequence (P31539 whole entry A503V): as the sequence (P31539 whole entry T317A) above, with A317T, A503V counted along it
Description: ATPase assay, Hsp104^A503V. As to the method:
Wild-type or mutant Hsp104 (0.25 µM monomer) in ATPase buffer (20 mM HEPES-KOH pH 7.4, 20 mM NaCl and 10 mM MgCl2) was incubated for 60 or 10 min at 25°C in the presence of ATP (1 mM) as noted. ATPase activity was assessed by the release of inorganic phosphate determined by using a malachite green phosphate detection kit (Innova).
as §1

As for `Cc1ccc(C(=O)Nc2ccc(S(=O)(=O)O)c3cc(S(=O)(=O)O)cc(S(=O)(=O)O)c23)cc1NC(=O)c1cccc(NC(=O)Nc2cccc(C(=O)Nc3cc(C(=O)Nc4ccc(S(=O)(=O)O)c5cc(S(=O)(=O)O)cc(S(=O)(=O)O)c45)ccc3C)c2)c1` [Suramin], the figures for the “Hsp104^T317A refolding activity” value on Hsp104^T317A (Suramin 1 µM) and at Hsp104^T317A (Suramin 50 µM) were “approximately 75%” and “approximately 8%”, respectively. The same compound returned a 50% inhibitory concentration (IC50) against Hsp104^T317A (based on refolding data) of around 20.5 µM. Further, the “Effect on RepA1–70-GFP unfolding by Hsp104” value on Hsp104^WT (Suramin 25 µM) is “only mildly inhibited”; at Hsp104^WT (Suramin 100 µM) it was “prevented substrate unfolding”. Further, the “Inhibitor concentration of maximal ATPase inhibition” value at Hsp104^A503V (Hsp104^A503V) was found to be 25 µM. Further, at Hsp104^A503V (read-out: Hsp104^A503V ATPase activity relative to uninhibited), the activity at 25 µM came out at 18%.
